According to patent publication US10947242B2, “[1,2,4]triazolo[1,5and#8208;A]pyrimidine compounds as PDE2 inhibitors” (Janssen Pharmaceutica NV, priority 2016, dated 2021):
Several values for one entry are separate records, joined by “and”; a condition that tells them apart may be missing. Equal values may be shown once. Read-outs that look alike come from different tables or passages of the source.

Experiments:
PDE2A = biological target: T1, PDE2A (Rattus norvegicus, UniProt Q01062); assay: PDE2 occupancy by test compounds, ex-vivo autoradiography with [3H]B-17a; assay type: in vivo, Male Wistar rats; conditions: route PO (oral)
T1 construct: Twenty μm-thick striatal sections were cut; from tissue; host or cells: rat brain, striatal sections
T1 sequence (Q01062 1-928): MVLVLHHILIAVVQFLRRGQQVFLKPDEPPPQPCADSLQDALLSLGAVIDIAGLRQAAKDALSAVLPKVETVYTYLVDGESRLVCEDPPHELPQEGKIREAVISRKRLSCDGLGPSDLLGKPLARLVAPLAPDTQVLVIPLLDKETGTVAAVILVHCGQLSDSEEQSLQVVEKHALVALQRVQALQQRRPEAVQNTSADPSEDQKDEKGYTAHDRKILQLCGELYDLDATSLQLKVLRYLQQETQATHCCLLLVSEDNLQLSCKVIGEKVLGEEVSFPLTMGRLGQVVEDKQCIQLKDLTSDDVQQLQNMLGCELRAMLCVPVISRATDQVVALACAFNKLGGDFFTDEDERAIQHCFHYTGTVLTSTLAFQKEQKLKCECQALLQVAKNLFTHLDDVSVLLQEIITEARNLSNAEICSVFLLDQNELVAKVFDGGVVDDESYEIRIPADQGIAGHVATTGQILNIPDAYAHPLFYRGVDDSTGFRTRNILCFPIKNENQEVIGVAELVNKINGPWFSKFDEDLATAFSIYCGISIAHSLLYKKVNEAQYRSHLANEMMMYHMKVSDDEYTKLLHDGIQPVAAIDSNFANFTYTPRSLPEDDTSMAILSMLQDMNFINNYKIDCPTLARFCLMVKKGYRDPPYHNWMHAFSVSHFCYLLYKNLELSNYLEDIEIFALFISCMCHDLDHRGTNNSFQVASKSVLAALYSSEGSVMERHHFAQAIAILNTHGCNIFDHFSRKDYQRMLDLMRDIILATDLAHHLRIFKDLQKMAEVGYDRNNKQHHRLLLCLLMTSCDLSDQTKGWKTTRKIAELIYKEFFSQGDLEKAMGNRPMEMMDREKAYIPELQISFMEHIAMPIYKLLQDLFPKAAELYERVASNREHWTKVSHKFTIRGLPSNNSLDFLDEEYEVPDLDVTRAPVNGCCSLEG

[1] = biological target: T2, Human recombinant PDE10A (hPDE10A) (Homo sapiens, UniProt Q9Y233); assay: In vitro assay PDE10A, human clone (SPA, 3H-cAMP hydrolysis); assay type: biochemical; conditions: human clone (h), default
T2 construct: His tag (inferred from metal chelate purification); made in house; host or cells: Sf9 insect cells (baculovirus)
Summary of the method: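 Hydrolysis of 3H-cAMP (60 nM cAMP, 0.008 μCi tracer) proceeded for 60 min at room temperature, with the product detected by SPA bead scintillation counting. The enzyme was hPDE10A from baculovirus-infected Sf9 cells in Tris pH 7.8 buffer with MgCl2 and EGTA, and compounds were at 1% DMSO final. Blanks lacked enzyme.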

[2] = biological target: T3, Human recombinant PDE2A (hPDE2A) (Homo sapiens, UniProt O00408); assay: In vitro assay PDE2A (SPA, 3H-cGMP hydrolysis); assay type: biochemical; conditions: for IC50: read-out: hPDE2A pIC50 (converted); for Emax: read-out: hPDE2A Emax
T3 construct: His tag (inferred from metal chelate purification); made in house; host or cells: Sf9 insect cells (baculovirus)

[3] = biological target: T4, Human recombinant PDE3A (hPDE3A) (Homo sapiens, UniProt Q14432); assay: In vitro assay PDE3A (SPA, 3H-cAMP hydrolysis); assay type: biochemical;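 note: the method names PDE3A and the table heading PDE3B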
T4 construct: purchased Scottish Biomedical; host or cells: Sf9 insect cells
Summary of the method: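 Radiometric SPA measuring [3H]-cAMP hydrolysis (0.4 μM cAMP, 2.4 μCi/ml) over 60 min at room temperature, in Tris pH 7.8 buffer with MgCl2 and EGTA, 1% DMSO. Enzyme: recombinant human brain PDE3A expressed in Sf9 cells, used as partially purified lysate. Counts compared with enzyme-free blanks and vehicle controls.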

[4] = system: hippocampal Shaffer collateral-CA1 synapses; conditions: for Basal synaptic transmission, change versus vehicle-treated control during baseline pre-tetanus: urethane-anesthetized rats, SC-CA1 fEPSP slope; for Enduring (>2 h) synaptic potentiation after HFS (fEPSP slope, % of pre-tetanus baseline): vehicle level 119±4%; for fEPSP slope at 0-30 min after completion of the tetanization: vehicle level 139±1%

T2 sequence (Q9Y233 267-1055): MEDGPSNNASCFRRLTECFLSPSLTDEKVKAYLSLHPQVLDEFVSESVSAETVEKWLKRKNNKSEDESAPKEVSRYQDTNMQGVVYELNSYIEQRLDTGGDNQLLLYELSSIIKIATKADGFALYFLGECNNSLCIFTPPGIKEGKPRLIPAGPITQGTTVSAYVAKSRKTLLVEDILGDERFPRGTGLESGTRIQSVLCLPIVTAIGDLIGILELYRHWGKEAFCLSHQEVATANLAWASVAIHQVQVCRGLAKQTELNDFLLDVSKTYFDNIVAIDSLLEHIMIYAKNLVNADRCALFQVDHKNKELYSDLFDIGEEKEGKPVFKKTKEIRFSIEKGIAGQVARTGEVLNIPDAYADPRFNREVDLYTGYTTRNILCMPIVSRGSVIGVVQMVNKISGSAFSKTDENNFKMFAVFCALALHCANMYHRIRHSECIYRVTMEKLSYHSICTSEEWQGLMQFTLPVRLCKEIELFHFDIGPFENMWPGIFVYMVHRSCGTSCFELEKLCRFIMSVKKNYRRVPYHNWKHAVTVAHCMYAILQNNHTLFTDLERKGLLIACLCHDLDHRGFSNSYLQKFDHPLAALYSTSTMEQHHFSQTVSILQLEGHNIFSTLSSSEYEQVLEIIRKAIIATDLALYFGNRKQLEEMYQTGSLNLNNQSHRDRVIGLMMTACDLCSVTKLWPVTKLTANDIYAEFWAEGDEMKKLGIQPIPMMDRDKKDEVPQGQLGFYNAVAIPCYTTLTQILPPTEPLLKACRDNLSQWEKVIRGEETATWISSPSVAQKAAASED
T3 sequence (O00408 whole entry): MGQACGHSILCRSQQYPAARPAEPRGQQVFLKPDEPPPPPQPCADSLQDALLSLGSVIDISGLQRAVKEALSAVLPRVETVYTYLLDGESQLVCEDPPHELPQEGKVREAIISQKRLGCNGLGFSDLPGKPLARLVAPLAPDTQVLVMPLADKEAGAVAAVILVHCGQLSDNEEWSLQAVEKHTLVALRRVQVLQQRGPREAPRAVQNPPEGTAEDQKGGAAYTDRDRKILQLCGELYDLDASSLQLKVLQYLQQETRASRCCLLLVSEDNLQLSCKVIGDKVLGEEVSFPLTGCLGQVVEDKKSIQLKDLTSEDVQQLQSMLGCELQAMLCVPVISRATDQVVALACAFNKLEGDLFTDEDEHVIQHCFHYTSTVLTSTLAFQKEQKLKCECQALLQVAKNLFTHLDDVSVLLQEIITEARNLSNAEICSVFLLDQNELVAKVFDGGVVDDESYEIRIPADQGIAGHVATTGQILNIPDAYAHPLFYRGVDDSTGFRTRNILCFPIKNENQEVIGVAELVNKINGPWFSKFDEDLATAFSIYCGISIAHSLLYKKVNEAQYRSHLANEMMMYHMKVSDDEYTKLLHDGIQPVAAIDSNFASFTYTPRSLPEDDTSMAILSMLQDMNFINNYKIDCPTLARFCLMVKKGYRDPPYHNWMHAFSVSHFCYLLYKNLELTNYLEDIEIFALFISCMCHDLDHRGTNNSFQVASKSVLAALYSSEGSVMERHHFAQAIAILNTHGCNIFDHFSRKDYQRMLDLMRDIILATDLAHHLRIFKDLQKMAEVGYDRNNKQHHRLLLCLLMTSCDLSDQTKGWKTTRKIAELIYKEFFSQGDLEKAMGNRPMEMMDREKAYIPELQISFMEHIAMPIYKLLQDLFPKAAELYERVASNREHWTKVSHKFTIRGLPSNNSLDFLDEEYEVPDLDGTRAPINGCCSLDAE
T4 sequence (Q14432 whole entry): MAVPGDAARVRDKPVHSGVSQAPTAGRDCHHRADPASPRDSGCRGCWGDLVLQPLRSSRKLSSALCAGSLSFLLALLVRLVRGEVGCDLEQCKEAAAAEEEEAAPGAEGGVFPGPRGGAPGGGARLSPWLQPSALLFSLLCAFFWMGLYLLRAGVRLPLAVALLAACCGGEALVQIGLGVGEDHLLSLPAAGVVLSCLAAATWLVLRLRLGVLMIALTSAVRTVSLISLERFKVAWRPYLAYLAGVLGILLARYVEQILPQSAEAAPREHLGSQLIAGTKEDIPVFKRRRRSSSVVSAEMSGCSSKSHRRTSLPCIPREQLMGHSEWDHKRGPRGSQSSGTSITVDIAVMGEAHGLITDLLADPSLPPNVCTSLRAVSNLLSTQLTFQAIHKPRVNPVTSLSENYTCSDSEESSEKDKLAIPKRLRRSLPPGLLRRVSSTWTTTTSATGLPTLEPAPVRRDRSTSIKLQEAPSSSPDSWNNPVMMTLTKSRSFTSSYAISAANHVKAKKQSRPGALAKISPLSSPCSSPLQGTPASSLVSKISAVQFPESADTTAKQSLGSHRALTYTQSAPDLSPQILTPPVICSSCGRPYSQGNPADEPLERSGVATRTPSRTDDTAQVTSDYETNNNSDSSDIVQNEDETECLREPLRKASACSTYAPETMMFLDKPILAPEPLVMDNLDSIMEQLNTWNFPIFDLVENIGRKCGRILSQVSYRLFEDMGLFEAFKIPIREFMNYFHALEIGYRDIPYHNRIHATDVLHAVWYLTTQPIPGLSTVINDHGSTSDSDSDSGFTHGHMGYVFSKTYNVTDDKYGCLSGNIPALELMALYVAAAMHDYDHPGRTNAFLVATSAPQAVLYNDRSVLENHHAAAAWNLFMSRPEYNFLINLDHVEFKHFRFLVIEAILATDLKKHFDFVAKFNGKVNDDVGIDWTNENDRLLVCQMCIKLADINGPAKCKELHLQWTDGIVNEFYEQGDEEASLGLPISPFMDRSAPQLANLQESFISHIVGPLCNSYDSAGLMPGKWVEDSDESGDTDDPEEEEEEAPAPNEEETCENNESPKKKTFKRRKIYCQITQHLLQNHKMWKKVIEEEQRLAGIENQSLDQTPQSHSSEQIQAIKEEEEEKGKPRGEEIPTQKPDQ

COc1cc(C(=O)N2CC[C@@H](C)[C@H](c3cc(C(F)F)nc4ncnn34)C2)cc(C)n1 [Compound 110]
receptor occupancy at 10 mg/kg (PDE2A; po, 10 mg/kg, percentage receptor occupancy, ex-vivo autoradiography, striatum): 75%
ED50 (PDE2A; drug dose producing 50% receptor occupancy, read-out: PDE Occupancy ED50): 8.3 mg/kg
Emax ([1]; read-out: hPDE10A2 Emax): 98%
IC50 ([1]; read-out: hPDE10A2 pIC50 (converted)): 72.4 nM and 112 nM
IC50 ([2]; human recombinant PDE2A, 10 μM cGMP substrate): 0.955 nM
Emax ([2]; human recombinant PDE2A): 101%
Emax [2]: 100%
IC50 [2]: 1.32 nM
IC50 ([3]; hPDE3B pIC50, read-out: pIC50 (converted)): 3390 nM
Emax ([3]; read-out: hPDE3B Emax, read-out: Emax): 76%
Basal synaptic transmission, change versus vehicle-treated control during baseline pre-tetanus ([4]; 20 mg/kg subcutaneous): +8%
Enduring (>2 h) synaptic potentiation after HFS (fEPSP slope, % of pre-tetanus baseline) ([4]; 20 mg/kg subcutaneous): 137±8%
fEPSP slope at 0-30 min after completion of the tetanization ([4]; 20 mg/kg subcutaneous, p<0.05): 153±5%
Basal synaptic transmission, change versus vehicle-treated control during baseline pre-tetanus ([4]; 40 mg/kg subcutaneous): 9%
fEPSP at 90-120 min after tetanization ([4]; 40 mg/kg subcutaneous, vehicle level 106±13%, p<0.05): 129±5%
fEPSP at 60-90 min after tetanization ([4]; 40 mg/kg subcutaneous, vehicle level 116±9, p<0.05): 137±5%
Enduring (>2 h) synaptic potentiation after HFS (fEPSP slope, % of pre-tetanus baseline) ([4]; 40 mg/kg subcutaneous): 142±5%
fEPSP at 30-60 min after tetanization ([4]; 40 mg/kg subcutaneous, vehicle level 125±6, p<0.05): 146±6%
fEPSP slope at 0-30 min after completion of the tetanization ([4]; 40 mg/kg subcutaneous, p<0.05): 155±4%
Overall effect on basal synaptic transmission and LTP in vivo ([4]; 20 and 40 mg/kg subcutaneous, anesthetized rats): facilitates basal synaptic transmission and LTP in vivo
Slope of the SC-CA1 path fEPSPs across the I/O curves (excitability of CA1 cells) ([4]; 20 and 40 mg/kg versus vehicle, FIG. 16b, c): No differences
